Results: paper PMC5994430, “Mitochondrial Delivery of Phenol Substructure Triggers Mitochondrial Depolarization and Apoptosis of Cancer Cells” (Frontiers in Pharmacology, 2018)

Assays:
Assay type in all cases: cell-based, Human
caspase 3 = assay: Caspase 3 activity in BEAS-2B cell lysates; settings: 0.1 μM, 24 h
Description: The activity of caspase 9 and 3 was measured by incubating 20 μg cell lysates with the respective fluorogenic substrates Ac-LEHD-AMC (LEHD-AMC) or DEVD-AMC (DEVD-AMC), as reported ([Pinzón-Daza et al., 2012]). Results were expressed as nmoles AMC/mg protein.
(§1) FIGURE 7 Effects of phenol TPP-derivatives on mitochondria-dependent apoptosis. A549 and BEAS-2B cells were incubated 24 h in fresh medium (ctrl) or in medium containing 0.1 μM of 1 or 2. (A,B) The activity of caspase 9 and 3 was measured fluorimetrically, in duplicates. Data are means ± SD (n = 3). For both panels: ^∗p < 0.001 vs. A549 ctrl cells; °p < 0.001 for BEAS-2B cells vs. the corresponding condition in A549 cells. (C,D) Cell cycle distribution, measured in duplicates. Data are means ± SD (n = 3). For both panels: ^∗p < 0.001 vs. A549 ctrl cells: °p < 0.001 for BEAS-2B cells vs. the corresponding condition in A549 cells. (E) Bright field microscope analysis of cells. Magnification: 60 × objective (0.52 numerical aperture); 10 × ocular lens. Bar: 20 μM. The micrographs are representative of three experiments with similar results.

A549 cells [1] = assay: Mitochondrial mass (MitoTracker Green staining); settings: 0.1 μM, 4 h
Description: The amount of proteins in mitochondrial extracts, normalized to the total amount of cellular proteins, was considered an index of mitochondrial mass ([Jean et al., 2015]). Mitochondria biogenesis was evaluated by measuring the expressions of subunit I of COX-I, which is encoded by mitochondrial DNA, and of the SDH-A of complex II, which is encoded by nuclear DNA, using the MitoBiogenesis^TM In-Cell ELISA Kit (Abcam), following the manufacturer’s instructions. The unit (U) of each protein/mg mitochondrial proteins were calculated. Results were expressed as COX-1/SDH-A ratio.
0.5 × 10^5 cells were grown on sterile glass coverslips. […] The samples were analyzed with an Olympus FV300 laser scanning confocal microscope equipped with a Blue Argon (488 nm) laser, a Green Helium Neon (543 nm) laser, and FluoView 300 software (Olympus Biosystems, Hamburg, Germany). […]
[t] […] (E,F) The electron transport was measured spectrophotometrically in duplicates. ATP levels in mitochondrial extracts was measured by a chemiluminescence-based assay, in duplicates. […] (G,H) ROS amount in mitochondrial extracts and mitochondrial damage were measured fluorimetrically, in duplicates. […] There were no statistically significant differences between untreated (ctrl) and compound 1/compound 2-treated BEAS-2B cells for all the parameters analyzed in this figure.

A549 cells [2] = assay: Bright field morphological analysis; settings: 0.1 μM, 24 h, compared with untreated cells
From the text: (§2) Human colon cancer HT29 cells, colon-derived normal fibroblast CCD-18Co cells, lung cancer A549 cells, normal human bronchial epithelial (immortalized with adenovirus 12-SV40 virus hybrid Ad12SV40) BEAS-2B cells, breast cancer MDA-MB-231 cells, normal breast epithelial MCF10A cells, human osteosarcoma U-2OS cells were purchased from ATCC (Manassas, VA, United States). Primary osteoblasts were generated as reported previously ([Buondonno et al., 2016]). HMM and HMC were primary cells stabilized in culture as described ([Aldieri et al., 2004]). The use of primary cells was approved by Ethical Committee of the San Luigi Gonzaga Hospital, Orbassano, (protocol #126/2016). All subjects gave written informed consent in accordance with the Declaration of Helsinki. Cells were maintained in medium supplemented with 10% v/v fetal bovine serum, 1% v/v penicillin-streptomycin, 1% v/v L-glutamine. Morphological analysis was performed with a bright field microscope (Leica Microsystems, Wetzlar, Germany). At least 5 fields/experimental condition were examined.
as §1

BEAS-2B cells [3] = assay: Bright field morphological analysis; settings: 0.1 μM, 24 h
From the text: as §2, §1

A549 cells [4] = assay: Mitochondrial depolarization (JC-1); settings: 0.1 μM, 4 h
Description: (§3) Mitochondrial depolarization was measured by staining cells with the fluorescent probe JC-1 (Biotium Inc., Hayward, CA, United States), as described ([Riganti et al., 2015a]). The red fluorescence, index of polarized mitochondria, was detected at 550 nm (λ excitation) and 600 nm (λ emission); the green fluorescence, index of depolarized and damaged mitochondria, was detected at 485 nm (λ excitation) and 535 nm (λ emission). The fluorescence units were used to calculate the percentage of green-fluorescent versus red-fluorescent mitochondria.
(§4) [t] Continuedof three experiments with similar results. (D) Confocal analysis of mitochondrial staining with MitoTracker® Green FM. Magnification: 60 × objective (0.52 numerical aperture); 10 × ocular lens. Bar: 10 μM. The micrographs are representative of three experiments with similar results. (E,F) The electron transport was measured spectrophotometrically in duplicates. ATP levels in mitochondrial extracts was measured by a chemiluminescence-based assay, in duplicates. Data are means ± SD (n = 3). For both panels: ^∗p < 0.001 vs. A549 ctrl cells; °p < 0.001 for BEAS-2B cells vs. the corresponding condition in A549 cells. (G,H) ROS amount in mitochondrial extracts and mitochondrial damage were measured fluorimetrically, in duplicates. Data are means ± SD (n = 3). For both panels: ^∗p < 0.001 vs. A549 ctrl cells; °p < 0.001 for BEAS-2B cells vs. the corresponding condition in A549 cells. There were no statistically significant differences between untreated (ctrl) and compound 1/compound 2-treated BEAS-2B cells for all the parameters analyzed in this figure.

BEAS-2B cells [5] = assay: Mitochondrial depolarization (JC-1); settings: 0.1 μM, 4 h
Description: as §3, §4

Row | Compound | activity of caspase 3 (caspase 3) | mitochondrial mass (A549 cells [1]) | cell morphology (A549 cells [2]) | cell morphology (BEAS-2B cells [3]) | percentage of depolarized mitochondria (A549 cells [4]) | mitochondrial depolarization (BEAS-2B cells [5])
1 | CC(=O)Oc1ccc(C[P+](c2ccccc2)(c2ccccc2)c2ccccc2)cc1.[Br-] [Compound 1] | remained similar to untreated cells | reduced the mitochondrial mass | reduced cell number and a clear round-shaped morphology | decreased cell density without appreciable morphological signs of apoptosis | acutely increased | negligible modifications
2 | O=C(Oc1ccc(C[P+](c2ccccc2)(c2ccccc2)c2ccccc2)cc1C(F)(F)F)c1ccccc1.[Br-] [Compound 2] | remained similar to untreated cells | reduced the mitochondrial mass | reduced cell number and a clear round-shaped morphology | decreased cell density without appreciable morphological signs of apoptosis | acutely increased | negligible modifications
